For one data set, the target named is HIV integrase (Human immunodeficiency virus type 1 group M subtype B, UniProt P04585). The experiment in a line: biochemical.

Method for HIV integrase: The inhibitory activities against integrase were determined by the assay described below. • (1) Preparation of DNA Solutions
Before using the DNA solutions, complementary chains were annealed by slowly cooling after boiling.
Streptavidin, obtained from Vector Laboratories, was dissolved in 0.1 M carbonate buffer (composition: 90 mM Na2CO3, 10 mM NaHCO3) at concentration of 40 μg/ml. After coating each well of immunoplates (obtained from NUNC) with 50 μl of the above solution at 4° C. over night, each well was washed twice with PBS (composition: 13.7 mM NaCl, 0.27 mM KCl, 0.43 mM Na2HPO4, 0.14 mM KH2PO4) and blocked with 300 μl of 1% skim milk in PBS for 30 min. Additionally, each well was washed twice with PBS and added 50 μl of substrate DNA solution (2 pmol/μl). The immunoplates were kept at room temperature for 30 min while shaking. Then, each well was washed twice with PBS and once with the distilled water.
Subsequently, in the each well prepared above were added 51 μl of the reaction solution prepared from 12 μl of the buffer (composition: 150 mM MOPS (pH7.2), 75 mM MnCl2, 50 mM 2-mercaptoethanol, 25% glycerol, 500 μg/ml bovine serum albumin-fraction V), and 39 μl of the distilled water. Then 9 μl of an integrase solution (30 pmol) was added and mixed well. In the well of negative control (NC) was added 9 μl of the integrase dilution buffer (composition: 20 mM MOPS (pH7.2), 400 mM potassium glutamate, 1 mM EDTA, 0.1% NP-40, 20% glycerol, 1 mM DTT, 4M urea), and mixed well using a plate mixer.
The plates were incubated at 30° C. for 60 minutes. The reaction solution was removed and washed three times with 250 μl of washing buffer (composition: 150 mM MOPS (pH7.2), 50 mM 2-mercaptoethanol, 25% glycerol, 500 μg/ml bovine serum albumin-fraction V).
Then each well was added with 53 μl of reaction solution prepared from 12 μl of buffer (composition: 150 mM MOPS (pH7.2), 75 mM MgCl2, 50 mM 2-mercaptoethanol, 25% glycerol, 500 μg/ml bovine serum albumin-fraction V) and 41 μl of distilled water. Further, each well was added with 6 μl of DMSO solution of a compound to be tested, and the well of positive control (PC) was added with 6 μl of DMSO, and mixed well by a plate mixer. After incubating the plate for 30 minutes at 30° C., was added 1 μl of target DNA (5 pmol/μl), and mixed well by a plate mixer.
After incubation for 10 minutes at 30° C., each plate was washed twice with PBS after removal of the reaction solution. Then, 100 μl of ×2000 diluted solution of anti-digoxigenin antibody labeled with alkaline phosphatase (sheep Fab fragment: Boehringer) was added allowed to bind for 1 hour at 30° C., and washed twice with PBS containing 0.05% Tween20 and once with PBS in this sequence. Next, 150 μl of the Alkaline phosphatase coloring buffer (composition: 10 mM p-Nitrophenylphosphate (obtained from Vector Laboratories), 5 mM MgCl2, 100 mM NaCl, 100 mM Tris-HCl (pH 9.5)) was added and allowed to react for 2 hours at 30° C. Then the reaction was terminated by the addition of 50 μl of 1N NaOH solution. The optical density at 405 nm (OD405nm) of each well was measured and the inhibition rate (IC50) was determined by the following expression. The inhibition rate(%)=100[1−{(C abs.−NC abs.)/(PC abs.−NC abs.)}]
C abs.; the OD of the well of the compound
NC abs.: the OD of the negative control (NC)
PC abs.: the OD of the positive control (PC)

With `COCC(=O)Nc1nc(C(=O)NCCOC(C)C)c(O)c2ncc(Cc3ccc(F)cc3)cc12` [Example B-7, 3-(4-fluorobenzyl)-8-hydroxy-5-(2-methoxyacetylamino)[1,6]naphthyridine-7-carboxylic acid (2-isopropoxyethyl)amide], the melting point lay in the range of 149 to 150 °C. Moreover, the concentration for half-maximal inhibition (IC50) against HIV integrase was 31.9 nM.
`COCCN(C)C(=O)c1nc(NC(=O)COC)c2cc(Cc3ccc(F)cc3)cnc2c1O` [Example B-16, 3-(4-fluorobenzyl)-8-hydroxy-5-(2-methoxyacetylamino)[1,6]naphthyridine-7-carboxylic acid (2-methoxyethyl)methylamide] returned a melting point of 66 to 68 °C. The IC50 at HIV integrase is 57 nM.
As for `COCC(=O)Nc1nc(C(=O)NCCN(C(C)C)C(C)C)c(O)c2ncc(Cc3ccc(F)cc3)cc12` [Example B-6, 3-(4-fluorobenzyl)-8-hydroxy-5-(2-methoxyacetylamino)[1,6]naphthyridine-7-carboxylic acid (2-diisopropylaminoethyl)amide], the melting point lay within 69 to 70 °C. At HIV integrase, the IC50 was 141 nM.
The corresponding values for `COCC(=O)Nc1nc(C(=O)NCCC(=O)OC)c(O)c2ncc(Cc3ccc(F)cc3)cc12` [Example B-15, Methyl 3-([3-(4-fluorobenzyl)-8-hydroxy-5-(2-methoxyacetylamino)[1,6]naphthyridine-7-carbonyl]amino)propionate] are 168 to 170 °C and 44.6 nM.
`COCC(=O)Nc1nc(C(=O)NCCC#N)c(O)c2ncc(Cc3ccc(F)cc3)cc12` [Example B-8, 3-(4-fluorobenzyl)-8-hydroxy-5-(2-methoxyacetylamino)[1,6]naphthyridine-7-carboxylic acid (2-cyanoethyl)amide] came in with a melting point of 173 to 175 °C. On HIV integrase, this compound gave an IC50 of 27.4 nM.
`COCCNC(=O)c1nc(C(=O)OC)c2cc(Cc3ccc(F)cc3)cnc2c1O` [Example A-1, Methyl 3-(4-fluorobenzyl)-8-hydroxy-7-(2-methoxyethylcarbamoyl) [1,6]naphthyridine-5-carbonate] yielded a melting point of 168 to 169 °C. This compound also showed an IC50 against HIV integrase of 5.81 nM.
For `CCOCCNC(=O)c1nc(NC(=O)COC)c2cc(Cc3ccc(F)cc3)cnc2c1O` [Example B-14, 3-(4-fluorobenzyl)-8-hydroxy-5-(2-methoxyacetylamino)[1,6]naphthyridine-7-carboxylic acid (2-ethoxyethyl)amide], the melting point was in the range of 175 to 177 °C. In addition, the half-maximal inhibitory concentration (IC50) against HIV integrase was 48.2 nM.
Compound `Cc1nc(C(=O)NN(C)C)c(O)c2ncc(Cc3ccc(F)cc3)cc12` [Example B-17, 3-(4-fluorobenzyl)-8-hydroxy-5-methyl[1,6]naphthyridine-7-carboxylic acid N′,N′-dimethylhydrazide] showed a melting point of 137 to 139 °C. This compound had an IC50 at HIV integrase of 16.9 nM.
For the compound `COCC=Cc1nc(C(=O)NCCOC)c(O)c2ncc(Cc3ccc(F)cc3)cc12` [Example B-4, 3-(4-fluorobenzyl)-8-hydroxy-5-(3-methoxypropenyl)[1,6]naphthyridine-7-carboxylic acid (2-methoxyethyl)amide], the melting point lay within 125 to 126 °C. This compound showed an IC50 at HIV integrase of 11.3 nM.
For the compound `COCC(=O)Nc1nc(C(=O)NC(C)C(=O)OC)c(O)c2ncc(Cc3ccc(F)cc3)cc12` (centres unmarked) [Example B-11, Methyl 2-{[3-(4-fluorobenzyl)-8-hydroxy-5-(2-methoxyacetylamino)[1,6]naphthyridine-7-carbonyl]amino}propionate], the melting point was 181 to 182 °C. This compound showed an IC50 against HIV integrase of 51 nM.
Compound `COCCCNC(=O)c1nc(NC(=O)COC)c2cc(Cc3ccc(F)cc3)cnc2c1O` [Example B-5, 3-(4-fluorobenzyl)-8-hydroxy-5-(2-methoxyacetylamino)[1,6]naphthyridine-7-carboxylic acid (3-methoxypropyl) amide] displayed a melting point of 159 to 160 °C. Further, at HIV integrase, the IC50 is 39.4 nM.
On to `COCCNC(=O)c1nc(NC(C)=O)c2cc(Cc3ccc(F)cc3)cnc2c1O` [Example A-2, 5-acetylamino-3-(4-fluorobenzyl)-8-hydroxy[1,6]naphthyridine-7-carboxylic acid 2-methoxyethyl amide], for which the melting point lay in the range of 216 to 217 °C. This compound also gave an IC50 against HIV integrase of 46.1 nM.
The like results for `COCCNC(=O)c1nc(C)c2cc(Cc3ccc(F)cc3)cnc2c1O` [Example B-2, 3-(4-fluorobenzyl)-8-hydroxy-5-methyl[1,6]naphthyridine-7-carboxylic acid (2-methoxyethyl)amide] were, in that order, 167 to 168 °C and 20 nM.

As usually defined, the melting point is the temperature of the solid-liquid transition. The term IC50 denotes the midpoint of a concentration-inhibition curve. Low values mean greater potency in that assay, high ones weaker potency in that assay.

For the origin of these results see patent US7919623B2, “Naphthyridine derivatives having inhibitory activity against HIV integrase” (Shionogi & Co., Ltd., priority 2004, dated 2011).
